In patent US10336739B2, “4-hydroxy-3-(heteroaryl)pyridine-2-one APJ agonists” (BRISTOL-MYERS SQUIBB COMPANY, priority 2015, dated 2019):
Read-outs that look alike come from different tables or passages of the source.

Target: human APJ receptor (Homo sapiens (Human), UniProt P35414)
Assay: Intracellular cAMP accumulation assay (APJ hcAMP, HTRF)
Assay type: cell-based
Settings: HEK293 cells stably expressing human APJ receptor, inhibition of forskolin-mediated cAMP production
How it was run: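 HEK293 cells stably expressing human APJ, 5,000 per well, exposed to compound with […] IBMX and 2 μM forskolin for 30 minutes at room temperature. cAMP measured by HTRF after lysis and 60 min detection incubation. EC50 from sigmoidal variable-slope fits of inhibition of forskolin-induced cAMP, quantified against a cAMP standard curve.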

[1] = read-out: hAPJ cAMP EC50 Potency range

Chain of human APJ receptor (P35414 whole entry): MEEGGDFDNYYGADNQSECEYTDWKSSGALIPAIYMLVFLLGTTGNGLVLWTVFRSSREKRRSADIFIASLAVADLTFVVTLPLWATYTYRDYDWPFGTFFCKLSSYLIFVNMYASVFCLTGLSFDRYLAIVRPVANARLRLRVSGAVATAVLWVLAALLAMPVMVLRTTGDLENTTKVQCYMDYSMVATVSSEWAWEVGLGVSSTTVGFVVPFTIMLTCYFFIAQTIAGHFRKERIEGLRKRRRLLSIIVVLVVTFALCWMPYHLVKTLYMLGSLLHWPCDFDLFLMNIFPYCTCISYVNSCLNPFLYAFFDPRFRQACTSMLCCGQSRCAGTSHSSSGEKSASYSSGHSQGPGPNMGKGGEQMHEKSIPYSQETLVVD

EC50 [1] [nM]	SMILES	other results
	CCOCc1nc(O)c(-c2nnc(Cc3ccc(Cl)cn3)o2)c(O)c1-c1c(O)cccc1OC [Example 274, 3-{5-[(5-chloropyridin-2-yl)methyl]-1,3,4-oxadiazol-2-yl}-6-(ethoxymethyl)-5-(2-hydroxy-6-methoxyphenyl) pyridine-2,4-diol]	EC50 (read-out: hAPJ cAMP EC50 (nM) Potency range): 0.01 to 10 nM
0.01 to 10	CCCCc1nc(O)c(-c2nnc(CC(=O)NCC)o2)c(O)c1-c1c(OC)cccc1OC [Example 187, 2-{5-[6-butyl-5-(2,6-dimethoxyphenyl)-2,4-dihydroxypyridin-3-yl]-1,3,4-oxadiazol-2-yl}-N-ethylacetamide]	
0.01 to 10	CCOCc1nc(O)c(-c2nnc(Cc3noc4ccccc34)o2)c(O)c1-c1c(OC)cc(F)cc1OC [Example 213, 3-[5-(1,2-benzoxazol-3-ylmethyl)-1,3,4-oxadiazol-2-yl]-6-(ethoxymethyl)-5-(4-fluoro-2,6-dimethoxyphenyl) pyridine-2,4-diol]	
10 to 100	CCCCc1nc(O)c(-c2nnc(Cc3ccc(F)c(F)c3)o2)c(O)c1-c1cccc(CC)c1 [Example 140, 6-butyl-3-{5-[(3,4-difluorophenyl)methyl]-1,3,4-oxadiazol-2-yl}-5-(3-ethylphenyl) pyridine-2,4-diol]	
	CCCCc1[nH]c(=O)c(-c2nnc(Cc3csc(C)n3)o2)c(O)c1-c1cccc(CC)c1 [Example 137, 6-butyl-5-(3-ethylphenyl)-4-hydroxy-3-{5-[(2-methyl-1,3-thiazol-4-yl)methyl]-1,3,4-oxadiazol-2-yl}-1,2-dihydropyridin-2-one]	EC50 (read-out: Human APJ cAMP EC50 Potency range): 10 to 100 nM
10 to 100	COc1cccc(OC)c1-c1c(C2CC2)nc(O)c(-c2nnc(Cc3noc4ccccc34)o2)c1O [Example 92, 3-[5-(1,2-benzoxazol-3-ylmethyl)-1,3,4-oxadiazol-2-yl]-6-cyclopropyl-5-(2,6-dimethoxyphenyl) pyridine-2,4-diol]	
0.01 to 10	CCCCc1nc(O)c(-c2nnc(CN(C)C(=O)c3cccnc3)o2)c(O)c1-c1c(OC)cccc1OC [Example 165, N-({5-[6-butyl-5-(2,6-dimethoxyphenyl)-2,4-dihydroxypyridin-3-yl]-1,3,4-oxadiazol-2-yl}methyl)-N-methylpyridine-3-carboxamide]	
10 to 100	COc1cccc(OC)c1-c1c(C2CC2)nc(O)c(-c2nnc(Cc3csc(C)n3)o2)c1O [Example 94, 6-cyclopropyl-5-(2,6-dimethoxyphenyl) 3-{5-[(2-methyl-1,3-thiazol-4-yl)methyl]-1,3,4-oxadiazol-2-yl}pyridine-2,4-diol]	
0.01 to 10	CCCCc1nc(O)c(-c2nnc(CC(C)(C)c3ccc(Cl)cc3)o2)c(O)c1-c1c(OC)cccc1OC [Example 54, 6-butyl-3-{5-[2-(4-chlorophenyl)-2-methylpropyl]-1,3,4-oxadiazol-2-yl}-5-(2,6-dimethoxyphenyl) pyridine-2,4-diol]	
0.01 to 10	CCCCc1nc(O)c(-c2nnc(CCc3nc4ccccc4n3C)o2)c(O)c1-c1c(OC)cccc1OC [Example 58, 6-butyl-5-(2,6-dimethoxyphenyl)-3-{5-[2-(1-methyl-1H-1,3-benzodiazol-2-yl)ethyl]-1,3,4-oxadiazol-2-yl}pyridine-2,4-diol]	
10 to 100	CCCCc1nc(O)c(-c2nnc(CCc3nc(-c4ccccc4)no3)o2)c(O)c1-c1c(OC)cccc1OC [Example 77, 6-butyl-5-(2,6-dimethoxyphenyl)-3-{5-[2-(3-phenyl-1,2,4-oxadiazol-5-yl)ethyl]-1,3,4-oxadiazol-2-yl}pyridine-2,4-diol]	
0.01 to 10	CCCCc1nc(O)c(-c2nnc(Cc3noc4ccccc34)o2)c(O)c1-c1c(OC)cc(C)cc1OC [Example 26, 3-[5-(1,2-benzoxazol-3-ylmethyl)-1,3,4-oxadiazol-2-yl]-6-butyl-5-(2,6-dimethoxy-4-methylphenyl) pyridine-2,4-diol]	
